Laboratory results taken from patent US5217877A, “Process for the preparation of α-glucosidase inhibitor, pradimicin Q” (Bristol-Myers Squibb Company, priority 1991, dated 1993).
Values after ≈ are worked out from the molar mass of the structure shown.

What was measured:
[1] = molecular target: T1, α-glucosidase (Sigma G-5003) (Saccharomyces cerevisiae, UniProt P53341); assay: α-Glucosidase inhibitory activity (p-nitrophenyl-α-D-glucopyranoside hydrolysis); type: biochemical; conditions: for IC50 / IC50 (α-glucosidase inhibitory activity): 37° C., 15 minutes, pH 6.8, 0.7 mM p-nitrophenyl-α-D-glucopyranoside
T1 construct: purchased Sigma G-5003
T1 sequence (P53341 whole entry): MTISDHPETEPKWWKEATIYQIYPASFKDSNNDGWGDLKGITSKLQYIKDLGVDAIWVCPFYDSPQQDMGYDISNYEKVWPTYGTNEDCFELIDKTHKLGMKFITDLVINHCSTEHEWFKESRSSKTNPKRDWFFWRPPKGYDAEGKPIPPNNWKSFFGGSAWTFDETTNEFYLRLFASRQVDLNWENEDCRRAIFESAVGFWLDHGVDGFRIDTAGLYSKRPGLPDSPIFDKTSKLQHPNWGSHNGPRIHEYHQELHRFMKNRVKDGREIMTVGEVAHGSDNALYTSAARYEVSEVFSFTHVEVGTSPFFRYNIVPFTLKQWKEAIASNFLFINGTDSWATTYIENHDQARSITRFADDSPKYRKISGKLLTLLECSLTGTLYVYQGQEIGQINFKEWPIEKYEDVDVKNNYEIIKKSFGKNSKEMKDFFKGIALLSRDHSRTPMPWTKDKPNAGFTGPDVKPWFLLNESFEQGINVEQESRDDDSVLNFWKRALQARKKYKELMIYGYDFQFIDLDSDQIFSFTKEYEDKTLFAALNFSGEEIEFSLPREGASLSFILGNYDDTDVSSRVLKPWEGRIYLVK
Description: Forty μl of α-glucosidase (Sigma G-5003, #11 U/mg protein) (0.1 mg/ml in 100 mM phosphate buffer, pH 6.8=[…]) for tests (or the buffer for the control), 950 μl of 0.7 mM p-nitrophenyl-α-D-glucopyranoside (Sigma N1377), and 10 μl of the assay compound (various concentrations dissolved in DMSO) were mixed and incubated at 37° C. for 15 minutes. To the reaction mixture, 1.0 ml of 0.2N NaOH and then 1.0 ml of n-butanol were added and voltex-mixed. […] IC50 was determined from a standard curve of p-nitrophenol released when the assay was run without the test compound (0% inhibition) and when the assay was run without the enzyme (100% inhibition).

[2] = tested on: mouse melanoma B16 cells; assay: cells; conditions: B16, read-out: cytotoxic activity IC50

## COc1cc(O)c2c(c1)C(=O)c1c(O)c3c(c(OC)c1C2=O)C(O)C(O)c1cc(C)c(C(=O)NC(C)C(=O)O)c(O)c1-3 (stereo not drawn) [Benanomicin C, benanomicin C]
[1]
  IC50: 107 µM

## COc1cc(O)c2c(c1)C(=O)c1c(cc3c(c1O)-c1c(cc(C)c(C(=O)N[C@H](CO)C(=O)O)c1O)[C@H](O[C@@H]1O[C@H](C)[C@H](N(C)C)[C@H](O[C@@H]4OC[C@@H](O)[C@H](O)[C@H]4O)[C@H]1O)[C@H]3O)C2=O [N,N-dimethylpradimicin FA-2]
[1]
  α-glucosidase inhibitory activity (in words): no α-glucosidase inhibitory activity
  IC50 (α-glucosidase inhibitory activity): > 100 µg/mL

## CNC1C(C)OC(OC2c3cc(C)c(C(=O)NC(C)C(=O)O)c(O)c3-c3c(cc4c(c3O)C(=O)c3cc(OC)cc(O)c3C4=O)C2O)C(O)C1OC1OCC(O)C(O)C1O (stereo not drawn) [Pradimicin A]
[1]
  α-glucosidase inhibitory activity (in words): no α-glucosidase inhibitory activity
  IC50: > 119 µM

## CN[C@@H]1[C@H](O[C@@H]2O[C@H](CO)[C@H](O)[C@H](O)[C@@H]2O)[C@@H](O)[C@H](O[C@@H]2c3cc(C)c(C(=O)N[C@H](C)C(=O)O)c(O)c3-c3c(cc4c(c3O)C(=O)c3cc(OC)cc(O)c3C4=O)[C@@H]2O)O[C@H]1C [Pradimicin L]
[1]
  α-glucosidase inhibitory activity (in words): no α-glucosidase inhibitory activity
  IC50 (α-glucosidase inhibitory activity): > 100 µg/mL

## Cc1cc2c(c(O)c1C(=O)O)-c1c(O)c3c(c(O)c1CC2O)C(=O)c1c(O)cc(O)cc1C3=O (stereo not drawn) [Pradimicin Q, pradimicin Q]
[2]
  IC50: 75 µg/mL (≈ 162 µM)
[1]
  IC50: 6.46 µM
